Source: patent publication US12692249B2, “WDR5 inhibitors and modulators” (Vanderbilt University, priority 2019, dated 2026)
pKi: −log10 of the molar value. Read-outs that look alike come from different tables or passages of the source.

What was measured:
WDR5 = WDR5 (Homo sapiens, UniProt P61964); assay: TR-FRET competition binding assay, displacement of 10mer-Thr-FAM MLL peptide probe from His-tagged WDR5; conditions: WDR5-His tag (residues 24-334) 2 nM; 10mer-Thr-FAM 150 nM; 60 min, room temperature; read-out: Ki for Inhibition of WDR5 by TR-FRET assay
[1] = system: MV4:11 human cancer cell lines; assay: Cellular viability / anti-proliferative assay, CellTiter-Glo, 5 day protocol; format: cell-based; conditions: read-out: GI50 on cellular proliferation of MV4:11 human cancer cell lines
How it was run: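 Luminescent ATP-based viability (CellTiter-Glo) after a 5-day exposure gave GI50 via sigmoidal fitting, averaged over two or more replicates. Compounds spanned 22 two-fold steps down from 30 μM at 0.3% DMSO, on 200 MV-4-11 cells per well grown in IMDM plus 10% FBS.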

[2] = Homo sapiens, MV4-11, 120 h, MV4:11 cells, 5 day incubation, CellTiter-Glo, mean of at least two replicates

| pKi (WDR5) | GI50 [1, 2] | GI50 ([1]; MV4:11 cells, 5 day incubation, CellTiter-Glo, mean of at least two replicates) | Compound | GI50 ([1]; Homo sapiens, MV4-11, 120 h) |
| --- | --- | --- | --- | --- |
| 10.44 | < 20 nM |  | COc1cc(CN2CCC(OC)CC2)c2nccc(N3CCc4c(cc(Cn5ccnc5)cc4-c4cn(C)nc4C(F)(F)F)C3=O)c2c1 [Example 142, 7-((1H-Imidazol-1-yl)methyl)-2-(6-methoxy-8-((4-methoxypiperidin-1-yl)methyl)quinolin-4-yl)-5-(1-methyl-3-(trifluoromethyl)-1H-pyrazol-4-yl)-3,4-dihydroisoquinolin-1(2H)-one] |  |
| 10.42 | < 20 nM |  | COc1cc(CN2CCN(C3CCOCC3)CC2)c2nccc(N3CCc4c(cc(Cn5ccnc5)cc4-c4cn(C)nc4C(F)(F)F)C3=O)c2c1 [Example 143, 7-((1H-Imidazol-1-yl)methyl)-2-(6-methoxy-8-((4-(tetrahydro-2H-pyran-4-yl)piperazin-1-yl)methyl)quinolin-4-yl)-5-(1-methyl-3-(trifluoromethyl)-1H-pyrazol-4-yl)-3,4-dihydroisoquinolin-1(2H)-one] |  |
| 10.33 | < 20 nM |  | COCCN1CCN(Cc2cc(OC)cc3c(N4CCc5c(cc(Cn6ccnc6)cc5-c5cn(C)nc5C(F)(F)F)C4=O)ccnc23)CC1 [Example 144, 7-((1H-Imidazol-1-yl)methyl)-2-(6-methoxy-8-((4-(2-methoxyethyl)piperazin-1-yl)methyl)quinolin-4-yl)-5-(1-methyl-3-(trifluoromethyl)-1H-pyrazol-4-yl)-3,4-dihydroisoquinolin-1(2H)-one] |  |
| 10.46 | 75 nM |  | CCc1cc(OC)cc2c(N3CCc4c(cc(Cn5ccnc5)cc4-c4cn(C)nc4C(F)(F)F)C3=O)ccnc12 [Example 149, 7-((1H-Imidazol-1-yl)methyl)-2-(8-ethyl-6-methoxyquinolin-4-yl)-5-(1-methyl-3-(trifluoromethyl)-1H-pyrazol-4-yl)-3,4-dihydroisoquinolin-1(2H)-one] |  |
| 10.60 |  | 27 nM | COCc1cc(OC)cc2c(N3CCc4c(cc(Cn5ccnc5)cc4-c4cn(C)nc4C(F)(F)F)C3=O)ccnc12 [Example 150, 7-((1H-Imidazol-1-yl)methyl)-2-(6-methoxy-8-(methoxymethyl)quinolin-4-yl)-5-(1-methyl-3-(trifluoromethyl)-1H-pyrazol-4-yl)-3,4-dihydroisoquinolin-1(2H)-one] |  |
| > 10.70 | 55 nM |  | COc1cc(C2=CCOCC2)c2nc(C)cc(N3CCc4c(cc(Cn5ccnc5)cc4-c4cn(C)nc4C(F)(F)F)C3=O)c2c1 [Example 151, 7-((1H-imidazol-1-yl)methyl)-2-(8-(3,6-dihydro-2H-pyran-4-yl)-6-methoxy-2-methylquinolin-4-yl)-5-(1-methyl-3-(trifluoromethyl)-1H-pyrazol-4-yl)-3,4-dihydroisoquinolin-1(2H)-one] |  |
| 10.66 | 47 nM |  | CCc1cc(CCC(=O)N2CCOCC2)c2nc(C)cc(N3CCc4c(cc(Cn5ccnc5)cc4-c4cn(C)nc4C(F)(F)F)C3=O)c2c1 [Example 153, 7-((1H-Imidazol-1-yl)methyl)-2-(6-ethyl-2-methyl-8-(3-morpholino-3-oxopropyl)quinolin-4-yl)-5-(1b-methyl-3-(trifluoromethyl)-1H-pyrazol-4-yl)-3,4-dihydroisoquinolin-1(2H)-one] |  |
| 10.54 | < 20 nM |  | COc1cc2c(N3CCc4c(cc(Cn5ccnc5)cc4-c4cn(C)nc4C(F)(F)F)C3=O)cc(C)cc2nc1C [Example 155, 7-((1H-Imidazol-1-yl)methyl)-2-(3-methoxy-2,7-dimethylquinolin-5-yl)-5-(1-methyl-3-(trifluoromethyl)-1H-pyrazol-4-yl)-3,4-dihydroisoquinolin-1(2H)-one] |  |
| 10.70 | 28 nM |  | CCc1cc(COC)c2nc(C)cc(N3CCc4c(cc(Cn5ccnc5)cc4-c4cn(C)nc4C(F)(F)F)C3=O)c2c1 [Example 156, 7-((1H-Imidazol-1-yl)methyl)-2-(6-ethyl-8-(methoxymethyl)-2-methylquinolin-4-yl)-5-(1-methyl-3-(trifluoromethyl)-1H-pyrazol-4-yl)-3,4-dihydroisoquinolin-1(2H)-one] |  |
| > 10.70 | < 20 nM |  | COc1cc(C2CCN(C)CC2)c2nc(C)cc(N3CCc4c(cc(Cn5ccnc5)cc4-c4cn(C)nc4C(F)(F)F)C3=O)c2c1 [Example 157, 7-((1H-Imidazol-1-yl)methyl)-2-(6-methoxy-2-methyl-8-(1-methylpiperidin-4-yl)quinolin-4-yl)-5-(1-methyl-3-(trifluoromethyl)-1H-pyrazol-4-yl)-3,4-dihydroisoquinolin-1(2H)-one] |  |
| > 10.70 | 31 nM |  | CCc1cc(C(=O)Nc2ccncc2)c2nccc(N3CCc4c(cc(Cn5ccnc5)cc4-c4cn(C)nc4C(F)(F)F)C3=O)c2c1 [Example 158, 4-(7-((1H-Imidazol-1-yl)methyl)-5-(1-methyl-3-(trifluoromethyl)-1H-pyrazol-4-yl)-1-oxo-3,4-dihydroisoquinolin-2(1H)-yl)-6-ethyl-N-(pyridin-4-yl)quinoline-8-carboxamide] |  |
| > 10.70 | < 20 nM |  | CCc1cc(C(=O)Nc2ncco2)c2nccc(N3CCc4c(cc(Cn5ccnc5)cc4-c4cn(C)nc4C(F)(F)F)C3=O)c2c1 [Example 160, 4-(7-((1H-Imidazol-1-yl)methyl)-5-(1-methyl-3-(trifluoromethyl)-1H-pyrazol-4-yl)-1-oxo-3,4-dihydroisoquinolin-2(1H)-yl)-6-ethyl-N-(oxazol-2-yl)quinoline-8-carboxamide] |  |
| > 10.70 | < 20 nM |  | COc1cc(COC2CCN(C)CC2)c2nccc(N3CCc4c(cc(Cn5ccnc5)cc4-c4cn(C)nc4C(F)(F)F)C3=O)c2c1 [Example 169, 7-((1H-Imidazol-1-yl)methyl)-2-(6-methoxy-8-(((1-methylpiperidin-4-yl)oxy)methyl)quinolin-4-yl)-5-(1-methyl-3-(trifluoromethyl)-1H-pyrazol-4-yl)-3,4-dihydroisoquinolin-1(2H)-one] |  |

| Compound | pKi (WDR5) | GI50 [1, 2] | GI50 ([1]; MV4:11 cells, 5 day incubation, CellTiter-Glo, mean of at least two replicates) | GI50 ([1]; Homo sapiens, MV4-11, 120 h) |
| --- | --- | --- | --- | --- |
| COc1cc(COC2CCC2)c2nccc(N3CCc4c(cc(Cn5ccnc5)cc4-c4cn(C)nc4C(F)(F)F)C3=O)c2c1 [Example 159, 7-((1H-Imidazol-1-yl)methyl)-2-(8-(cyclobutoxymethyl)-6-methoxyquinolin-4-yl)-5-(1-methyl-3-(trifluoromethyl)-1H-pyrazol-4-yl)-3,4-dihydroisoquinolin-1(2H)-one] | 10.57 | 159 nM |  |  |
| COc1cc(C2CCOCC2)c2nc(C)cc(N3CCc4c(cc(Cn5ccnc5)cc4-c4cn(C)nc4C(F)(F)F)C3=O)c2c1 [Example 165, 7-((1H-Imidazol-1-yl)methy)-2-(6-methoxy-2-methyl-8-(tetrahydro-2H-pyran-4-yl)quinolin-4-yl)-5-(1-methyl-3-(trifluoromethyl)-1H-pyrazol-4-yl)-3,4-dihydroisoquinolin-1(2H)-one] | 10.38 |  |  | 129 nM |
| COc1cc(COC2CC2)c2nccc(N3CCc4c(cc(Cn5ccnc5)cc4-c4cn(C)nc4C(F)(F)F)C3=O)c2c1 [Example 167, 7-((1H-Imidazol-1-yl)methyl)-2-(8-(cyclopropoxymethyl)-6-methoxyquinolin-4-yl)-5-(1-methyl-3-(trifluoromethyl)-1H-pyrazol-4-yl)-3,4-dihydroisoquinolin-1(2H)-one] | 10.47 |  |  | 106 nM |
